Experimental data from patent publication US7029846B2, “Site-specific protein modification” (University of Medicine and Dentistry of New Jersey, priority 2000, dated 2006).
Starred links: 1 amine or outer side, 2 acyl side, 3 side chain; linkers in the order of their positions; H or OH if unused. Non-standard residues stand in square brackets, D forms with d. No end group written: not given here. Tyr(3-Ac) = 3-acetyl-tyrosine, CC(=O)c1cc(C[C@H](N[*:1])C(=O)[*:2])ccc1O[*:3]

Biological target: rhodamine labeled TAR RNA (TAR-Rh)
Experiment: FRET fluorescence quenching titration of fluorescein labeled Tat peptide with rhodamine labeled TAR RNA
Type: binding, HIV-1
Conditions: quenching of Tat-Fl (5 nM) emission at 512 nm with increasing TAR-Rh, 50 mM Tris-HCl, pH 7.4 at 25° C., 20 mM KCl, fit to quadratic equation (1), read-out: dissociation constant (KD)
Description: FIG. 2(B). Fluorescence intensity of Tat-Fl (5 nM) at 512 nm in the presence of increasing TAR-Rh concentrations. The solid line represents the best fits of the data by nonlinear regression to quadratic equation (1). The fluorescence measurements were performed on PTI fluorescence spectrophotometer controlled by Felix software. The excitation wavelength was 492 nm and slits width was set 3.5 nm for both excitation and emission. All samples were corrected for the light source excitation effect and for the background intensity of buffer fluorescence as well as for dilution factors. Buffer conditions: […] Tris-HCl, pH 7.4 at 25° C., 20 mM KCl.
To determine the binding affinities of a Tat peptide under physiological conditions and test the application of acetyl-Tyr, we developed a fluorescence resonance energy transfer (FRET) system containing TAR RNA and a Tat peptide uniquely labeled with donor and acceptor dye molecules (FIG. 1). […] (Clegg, R. M. (1992) Fluorescence resonance energy transfer and nucleic acids, Methods Enzymol. 211, 353–88; Yang, M., and Millar, D. P. (1997) Fluorescence resonance energy transfer as a probe of DNA structure and function, Methods Enzymol. 278, 417–444). The donor's lifetime and quantum yield are reduced upon energy transfer, and the acceptor fluorescence is increased, or sensitized. […]

**Q.** With “Acetyl-Tyr-Tat peptide: HIV-1 Tat peptide (amino acids 47–56) with Tyr-47 replaced by 3-Acetyl-Tyrosine ([Tyr(3-Ac)]GRKKRRQRR)” as the substance, how does the Kd read?
**A.** 1 ± 0.5 nM
